System: RA patients
Assay: Total cholesterol determination, Study 2 (RA patients, monotherapy with Compound 1)
Assay type: in vivo, human
From the text: Randomized, double-blind, placebo-controlled, multicenter, phase IIb dose finding study of Compound 1 (dosed as a [Compound 1:HCl:3H2O]) administered for 24 weeks as monotherapy to subjects with moderately to severely active rheumatoid arthritis who have an inadequate response to methotrexate alone
Double-blind, placebo-controlled, monotherapy study in subjects with moderately to severely active RA who have an inadequate response to methotrexate (MTX) (oral or parenteral).
280 subjects randomized to one of 3 doses of Compound 1 (dosed as a [Compound 1:HCl:3H2O]) or to placebo, given once daily (q.d.).
Twelve weeks of treatment with Compound 1 (dosed as a [Compound 1:HCl:3H2O]) at 50 mg, 100 mg, or 200 mg q.d.; or placebo. At Week 12, all subjects on placebo and the subjects on the 50 mg dose who have not achieved 20% improvement in swollen joint count (SJC66) and tender joint count (TJC68) will be assigned to 100 mg q.d. in a blinded fashion and will continue treatment until Week 24. Subjects in the other groups will maintain their randomized treatment until Week 24.
This method is based on the determination of Δ^4 cholestenone after enzymatic cleavage of the cholesterol ester by cholesterol esterase, conversion of cholesterol by cholesterol oxidase, and subsequent measurement by the Trinder reaction of the hydrogen peroxide formed (Allain et al., 1974).
Cholesterol esters are cleaved by the action of cholesterol esterase to yield free cholesterol and fatty acids. Cholesterol oxidase then catalyzes the oxidation of cholesterol to cholest-4-en-3-one and hydrogen peroxide. In the presence of peroxidase, the hydrogen peroxide formed effects the oxidative coupling of phenol and 4-aminophenazone to form a red quinone-imine dye. The color intensity of the dye formed is directly proportional to the cholesterol concentration. It is determined by measuring the increase in absorbance.
Human serum and plasma samples cholesterol determination was done on a Roche/Hitachi Cobas c 701/702 system which automatically calculate the analyte concentration of each sample.

[1] = 50 mg q.d. non responders switching to 100 mg q.d. at week 12, week 1
[2] = 50 mg q.d. non responders switching to 100 mg q.d. at week 12, week 2
[3] = 50 mg q.d. non responders switching to 100 mg q.d. at week 12, week 4
[4] = 50 mg q.d. non responders switching to 100 mg q.d. at week 12, week 8
[5] = 50 mg q.d. non responders switching to 100 mg q.d. at week 12, week 12
[6] = 50 mg q.d. non responders switching to 100 mg q.d. at week 12, week 16
[7] = 50 mg q.d. non responders switching to 100 mg q.d. at week 12, week 20
[8] = 50 mg q.d. non responders switching to 100 mg q.d. at week 12, week 24

## O=C(Nc1nc2cccc(-c3ccc(CN4CCS(=O)(=O)CC4)cc3)n2n1)C1CC1 [Compound 1, cyclopropanecarboxylic acid {5-[4-(1,1-dioxo-thiomorpholin-4-ylmethyl)-phenyl]-[1,2,4]triazolo[1,5-a]pyridin-2yl}-amide]
[1]
  [total cholesterol] Mean percentage CFB - 24 weeks results: 4.56%
  [total cholesterol] Median percentage CFB - 24 weeks results: 2.94%
[2]
  [total cholesterol] Mean percentage CFB - 24 weeks results: 3.50%
  [total cholesterol] Median percentage CFB - 24 weeks results: 2.00%
[3]
  [total cholesterol] Mean percentage CFB - 24 weeks results: 7.51%
  [total cholesterol] Median percentage CFB - 24 weeks results: 6.58%
[4]
  [total cholesterol] Mean percentage CFB - 24 weeks results: 5.10%
  [total cholesterol] Median percentage CFB - 24 weeks results: 2.88%
[5]
  [total cholesterol] Mean percentage CFB - 24 weeks results: 5.83%
  [total cholesterol] Median percentage CFB - 24 weeks results: 6.79%
[6]
  [total cholesterol] Mean percentage CFB - 24 weeks results: 9.72%
  [total cholesterol] Median percentage CFB - 24 weeks results: 11.41%
[7]
  [total cholesterol] Mean percentage CFB - 24 weeks results: 9.75%
  [total cholesterol] Median percentage CFB - 24 weeks results: 7.07%
[8]
  [total cholesterol] Mean percentage CFB - 24 weeks results: 10.66%
  [total cholesterol] Median percentage CFB - 24 weeks results: 10.65%
50 mg q.d. responders, week 1
  [total cholesterol] Mean percentage CFB - 24 weeks results: 0.02%
  [total cholesterol] Median percentage CFB - 24 weeks results: 0.35%
50 mg q.d. responders, week 2
  [total cholesterol] Median percentage CFB - 24 weeks results: −0.82%
50 mg q.d. responders, week 4
  [total cholesterol] Mean percentage CFB - 24 weeks results: 1.68%
  [total cholesterol] Median percentage CFB - 24 weeks results: −0.51%
50 mg q.d. responders, week 8
  [total cholesterol] Mean percentage CFB - 24 weeks results: 5.55%
  [total cholesterol] Median percentage CFB - 24 weeks results: 5.74%
50 mg q.d. responders, week 12
  [total cholesterol] Mean percentage CFB - 24 weeks results: 3.59%
  [total cholesterol] Median percentage CFB - 24 weeks results: 1.01%
50 mg q.d. responders, week 16
  [total cholesterol] Mean percentage CFB - 24 weeks results: 5.85%
  [total cholesterol] Median percentage CFB - 24 weeks results: 2.92%
50 mg q.d. responders, week 20
  [total cholesterol] Mean percentage CFB - 24 weeks results: 2.09%
  [total cholesterol] Median percentage CFB - 24 weeks results: 3.75%
50 mg q.d. responders, week 24
  [total cholesterol] Mean percentage CFB - 24 weeks results: 3.49%
  [total cholesterol] Median percentage CFB - 24 weeks results: 5.44%
50 mg q.d., week 1
  [total cholesterol] Mean percentage CFB - 12 weeks results: 0.96%
  [total cholesterol] Median percentage CFB - 12 weeks results: 2.12%
50 mg q.d., week 2
  [total cholesterol] Mean percentage CFB - 12 weeks results: −0.18%
  [total cholesterol] Median percentage CFB - 12 weeks results: 0.00%
50 mg q.d., week 4
  [total cholesterol] Mean percentage CFB - 12 weeks results: 2.91%
  [total cholesterol] Median percentage CFB - 12 weeks results: 0.00%
50 mg q.d., week 8
  [total cholesterol] Mean percentage CFB - 12 weeks results: 5.45%
  [total cholesterol] Median percentage CFB - 12 weeks results: 4.90%
50 mg q.d., week 12
  [total cholesterol] Mean percentage CFB - 12 weeks results: 4.08%
  [total cholesterol] Median percentage CFB - 12 weeks results: 3.43%
100 mg q.d., week 1
  [total cholesterol] Mean percentage CFB - 12 weeks results: 4.15%
  [total cholesterol] Mean percentage CFB - 24 weeks results: 4.15%
  [total cholesterol] Median percentage CFB - 24 weeks results: 2.38%
100 mg q.d., week 2
  [total cholesterol] Mean percentage CFB - 12 weeks results: 4.96%
  [total cholesterol] Mean percentage CFB - 24 weeks results: 4.96%
  [total cholesterol] Median percentage CFB - 24 weeks results: 2.65%
100 mg q.d., week 4
  [total cholesterol] Mean percentage CFB - 12 weeks results: 8.28%
  [total cholesterol] Mean percentage CFB - 24 weeks results: 8.28%
  [total cholesterol] Median percentage CFB - 24 weeks results: 5.40%
100 mg q.d., week 8
  [total cholesterol] Mean percentage CFB - 12 weeks results: 7.75%
  [total cholesterol] Mean percentage CFB - 24 weeks results: 7.75%
  [total cholesterol] Median percentage CFB - 24 weeks results: 6.08%
100 mg q.d., week 12
  [total cholesterol] Mean percentage CFB - 12 weeks results: 12.45%
  [total cholesterol] Mean percentage CFB - 24 weeks results: 12.45%
  [total cholesterol] Median percentage CFB - 24 weeks results: 6.41%
100 mg q.d., week 16
  [total cholesterol] Mean percentage CFB - 24 weeks results: 10.96%
  [total cholesterol] Median percentage CFB - 24 weeks results: 8.91%
100 mg q.d., week 20
  [total cholesterol] Mean percentage CFB - 24 weeks results: 10.06%
  [total cholesterol] Median percentage CFB - 24 weeks results: 9.85%
100 mg q.d., week 24
  [total cholesterol] Mean percentage CFB - 24 weeks results: 11.75%
  [total cholesterol] Median percentage CFB - 24 weeks results: 10.29%
200 mg q.d., week 1
  [total cholesterol] Mean percentage CFB - 12 weeks results: 5.77%
  [total cholesterol] Mean percentage CFB - 24 weeks results: 5.77%
  [total cholesterol] Median percentage CFB - 24 weeks results: 5.37%
200 mg q.d., week 2
  [total cholesterol] Mean percentage CFB - 12 weeks results: 7.74%
  [total cholesterol] Mean percentage CFB - 24 weeks results: 7.74%
  [total cholesterol] Median percentage CFB - 24 weeks results: 6.90%
200 mg q.d., week 4
  [total cholesterol] Mean percentage CFB - 12 weeks results: 9.35%

From patent publication US10376520B2, “Methods for the treatment of cardiovascular disorders” (Galapagos NV, priority 2015, dated 2019)
